# In EP4722219A1 (Gan & Lee Pharmaceuticals Co., Ltd., priority 2023, dated 2024):
# Legend:
# [1] = biological target: T1, AR protein (Homo sapiens, UniProt P10275); experiment: AR protein degradation in VCaP cells (Western blot); format: cell-based; settings: 8h
# T1 construct: host or cells: VCaP
# T1 sequence (P10275 1-920): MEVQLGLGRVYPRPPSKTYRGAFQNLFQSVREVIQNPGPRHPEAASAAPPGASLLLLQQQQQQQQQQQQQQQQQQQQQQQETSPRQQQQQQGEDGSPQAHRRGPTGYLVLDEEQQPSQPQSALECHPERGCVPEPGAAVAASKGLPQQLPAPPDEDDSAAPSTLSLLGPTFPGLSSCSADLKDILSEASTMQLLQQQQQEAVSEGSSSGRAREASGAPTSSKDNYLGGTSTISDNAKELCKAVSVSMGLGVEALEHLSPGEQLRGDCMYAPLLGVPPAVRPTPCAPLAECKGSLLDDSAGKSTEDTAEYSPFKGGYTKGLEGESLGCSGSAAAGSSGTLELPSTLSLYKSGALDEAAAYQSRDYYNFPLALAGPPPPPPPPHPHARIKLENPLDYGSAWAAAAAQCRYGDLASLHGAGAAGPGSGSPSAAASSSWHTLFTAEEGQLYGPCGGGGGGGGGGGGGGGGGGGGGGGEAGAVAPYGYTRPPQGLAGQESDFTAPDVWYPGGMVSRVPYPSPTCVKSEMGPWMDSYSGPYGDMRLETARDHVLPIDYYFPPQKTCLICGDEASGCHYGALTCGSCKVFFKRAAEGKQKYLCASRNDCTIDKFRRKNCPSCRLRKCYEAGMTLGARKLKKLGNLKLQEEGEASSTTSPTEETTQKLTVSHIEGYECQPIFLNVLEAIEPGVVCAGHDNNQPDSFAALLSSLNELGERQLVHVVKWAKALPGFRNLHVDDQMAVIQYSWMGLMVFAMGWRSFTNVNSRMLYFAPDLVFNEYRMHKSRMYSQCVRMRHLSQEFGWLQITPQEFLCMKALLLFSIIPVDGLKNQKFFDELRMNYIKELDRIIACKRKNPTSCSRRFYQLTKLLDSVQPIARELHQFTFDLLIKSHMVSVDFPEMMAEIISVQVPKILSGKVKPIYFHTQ
# Method in brief: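 AR-positive VCaP human prostate cancer cells grown in DMEM with 10% FBS were plated in six-well plates at 3×10^5 cells/well and incubated overnight. Compounds were then added at 1 µL/well alongside a solvent control and incubated for 8h. Lysates in RIPA buffer with protease inhibitor were quantified by BCA and run by SDS-PAGE. AR was detected by Western blot, and degradation was calculated from band grayscale normalized to GAPDH.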
# [2] = test system: LNCaP cells; experiment: Inhibition of LNCaP cell proliferation (WST-8); format: cell-based; settings: LNCaP FGC cells, 96 hours
# Method in brief: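 Cells were seeded and cultured overnight at 37 °C, 5% CO2, then exposed for 96 h to compound at 9 concentrations, 5-fold serial dilution from 10 µM final. Viability was read by WST-8 absorbance at 450 nm.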
Compound,Degradation rate of AR protein in VCaP cells ([1]; 0.5 nM) [%],Degradation rate of AR protein in VCaP cells ([1]; 5 nM) [%],IC50 [2] [µM]
"COc1cc(O[C@H]2C(C)(C)[C@H](NC(=O)c3ccc(N4CCC(CN5CCN(c6ccc(C(=O)N[C@H]7CCC(=O)NC7=O)c(F)c6)CC5)CC4)cc3)C2(C)C)ccc1C#N [ARV-766, reference compound]",9,80,1.07
"(R)-3-((1-(4-(((S)-2-(3-chloro-4-cyanophenyl)-3-methyl-2,8-diazaspiro[4.5]decan-8-yl)phenyl)piperidin-4-yl)methyl)-N-(((S)-2,6-dioxopiperidin-3-yl)-1,2,3,4,4a,5-hexahydrobenzo[b]pyrazi no[1,2-d][1,4]oxazine-8-carboxamide [A-P-58]",12,37,0.51
"(S)-3-((1-(4-(((S)-2-(3-chloro-4-cyanophenyl)-3-methyl-2,8-diazaspiro[4.5]decan-8-yl)phenyl)piperidin-4-yl)methyl)-N-(((S)-2,6-dioxopiperidin-3-yl)-1,2,3,4,4a,5-hexahydrobenzo[b]pyrazi no[1,2-d][1,4]oxazine-8-carboxamide [A-P-57]",-31,-21,0.67
"N-(1r,4r)-4-(3-chloro-4-cyanophenoxy)cyclohexy 1)-6-(4-(7-(2,6-dioxopiperidin-3-yl))-6-oxo-7,8-dihydro-2H,6H-dipyrido[2,3-e]isoindole-3,1'-cyclohexane-4',4‴-piperidin]-1""-yl)pyridazine-3-carboxamide [A-P-32]",14,59,0.57
